# Source: ChEMBL document CHEMBL3885881, “DrugMatrix”
# Organism: Rattus norvegicus
# Assay: DrugMatrix - Regimen: Daily Repeat
# Format: toxicity, organism-based, Sprague-Dawley
# Set-up: regimen Daily Repeat, gender Male, age 6-8 weeks
# Details: in vivo, po, route oral GAVAGE, vehicle .5 % CMC; for ABSOLUTE BASOPHIL / ABSOLUTE EOSINOPHIL / ABSOLUTE LYMPHOCYTE / ABSOLUTE MONOCYTE / ABSOLUTE SEGMENTED NEUTROPHIL / BASOPHIL / EOSINOPHIL / ERYTHROCYTE COUNT / HEMATOCRIT / HEMOGLOBIN / LEUKOCYTE COUNT / LYMPHOCYTE / MEAN CORPUSCULAR HEMOGLOBIN / MEAN CORPUSCULAR HEMOGLOBIN CONCENTRATION / MEAN CORPUSCULAR VOLUME / MONOCYTE / NEUTROPHIL / NUCLEATED RED BLOOD CELLS / PLATELET COUNT: tissue Blood; for ALANINE AMINOTRANSFERASE / ALBUMIN / ALKALINE PHOSPHATASE / ASPARTATE AMINOTRANSFERASE / BLOOD UREA NITROGEN / CARBON DIOXIDE / CHLORIDE / CHOLESTEROL / CREATINE PHOSPHOKINASE / CREATININE / GLUCOSE / LACTATE DEHYDROGENASE / LIPASE / PHOSPHORUS / POTASSIUM / SODIUM / TOTAL BILIRUBIN / TOTAL PROTEIN / URIC ACID: tissue Plasma
# [1] = 19 mg/kg, 120 h, dose level High, time 5 day
# [2] = […], 72 h, dose 6.6 mg/Kg, dose level Low, time 3 day
# [3] = […], 120 h, dose 6.6 mg/Kg, dose level Low, time 5 day
compound,measurement,setting,value
NCC(CC(=O)O)c1ccc(Cl)cc1 (centres undefined) [BACLOFEN],ABSOLUTE BASOPHIL,[1],0 CELLS/uL
same,ABSOLUTE EOSINOPHIL,[1],0 CELLS/uL
same,ABSOLUTE LYMPHOCYTE,[1],14854 CELLS/uL
same,ABSOLUTE MONOCYTE,[1],102.67 CELLS/uL
same,ABSOLUTE SEGMENTED NEUTROPHIL,[1],1043.33 CELLS/uL
same,BASOPHIL,[1],0%
same,EOSINOPHIL,[1],0%
same,ERYTHROCYTE COUNT,[1],5.41 x10E6/uL
same,HEMATOCRIT,[1],33.6%
same,HEMOGLOBIN,[1],13.33 G/DL
same,LEUKOCYTE COUNT,[1],16 x10E3/uL
same,LYMPHOCYTE,[1],93%
same,MEAN CORPUSCULAR HEMOGLOBIN,[1],24.7 pg
same,MEAN CORPUSCULAR HEMOGLOBIN CONCENTRATION,[1],39.73 G/DL
same,MEAN CORPUSCULAR VOLUME,[1],62.17 fL
same,MONOCYTE,[1],0.67%
same,NEUTROPHIL,[1],6.33%
same,NUCLEATED RED BLOOD CELLS,[1],0 /100WBC
same,PLATELET COUNT,[1],1022.33 x10E3/uL
same,ALANINE AMINOTRANSFERASE,[1],54.67 u/L
same,ALBUMIN,[1],4.1 G/DL
same,ALKALINE PHOSPHATASE,[1],431.33 u/L
same,ASPARTATE AMINOTRANSFERASE,[1],87.67 u/L
same,BLOOD UREA NITROGEN,[1],19.67 mg/dL
same,CARBON DIOXIDE,[1],26.33 mmol/L
same,CHLORIDE,[1],103.67 MEQ/L
same,CHOLESTEROL,[1],59.33 mg/dL
same,CREATINE PHOSPHOKINASE,[1],272.67 u/L
same,CREATININE,[1],0.23 mg/dL
same,GLUCOSE,[1],160 mg/dL
same,LACTATE DEHYDROGENASE,[1],391 u/L
same,LIPASE,[1],9 u/L
same,PHOSPHORUS,[1],11.13 mg/dL
same,POTASSIUM,[1],6.54 MEQ/L
same,SODIUM,[1],147.27 MEQ/L
same,TOTAL BILIRUBIN,[1],0.3 mg/dL
same,TOTAL PROTEIN,[1],5.87 G/DL
same,URIC ACID,[1],1.4 mg/dL
same,ABSOLUTE BASOPHIL,[2],0 CELLS/uL
same,ABSOLUTE EOSINOPHIL,[2],196 CELLS/uL
same,ABSOLUTE LYMPHOCYTE,[2],14434 CELLS/uL
same,ABSOLUTE MONOCYTE,[2],264.67 CELLS/uL
same,ABSOLUTE SEGMENTED NEUTROPHIL,[2],1038.67 CELLS/uL
same,BASOPHIL,[2],0%
same,EOSINOPHIL,[2],1%
same,ERYTHROCYTE COUNT,[2],5.8 x10E6/uL
same,HEMATOCRIT,[2],36.17%
same,HEMOGLOBIN,[2],13.87 G/DL
same,LEUKOCYTE COUNT,[2],15.93 x10E3/uL
same,LYMPHOCYTE,[2],90.67%
same,MEAN CORPUSCULAR HEMOGLOBIN,[2],24.03 pg
same,MEAN CORPUSCULAR HEMOGLOBIN CONCENTRATION,[2],38.37 G/DL
same,MEAN CORPUSCULAR VOLUME,[2],62.57 fL
same,MONOCYTE,[2],1.67%
same,NEUTROPHIL,[2],6.67%
same,NUCLEATED RED BLOOD CELLS,[2],0 /100WBC
same,PLATELET COUNT,[2],1144 x10E3/uL
same,ALANINE AMINOTRANSFERASE,[2],51.67 u/L
same,ALBUMIN,[2],4.27 G/DL
same,ALKALINE PHOSPHATASE,[2],456 u/L
same,ASPARTATE AMINOTRANSFERASE,[2],81.33 u/L
same,BLOOD UREA NITROGEN,[2],18.33 mg/dL
same,CARBON DIOXIDE,[2],27 mmol/L
same,CHLORIDE,[2],100 MEQ/L
same,CHOLESTEROL,[2],67 mg/dL
same,CREATINE PHOSPHOKINASE,[2],351.67 u/L
same,CREATININE,[2],0.23 mg/dL
same,GLUCOSE,[2],153.33 mg/dL
same,LACTATE DEHYDROGENASE,[2],367.67 u/L
same,LIPASE,[2],10.67 u/L
same,PHOSPHORUS,[2],12.53 mg/dL
same,POTASSIUM,[2],7.1 MEQ/L
same,SODIUM,[2],142.1 MEQ/L
same,TOTAL BILIRUBIN,[2],0.2 mg/dL
same,TOTAL PROTEIN,[2],5.93 G/DL
same,URIC ACID,[2],1.63 mg/dL
same,ABSOLUTE BASOPHIL,[3],0 CELLS/uL
same,ABSOLUTE EOSINOPHIL,[3],160.33 CELLS/uL
same,ABSOLUTE LYMPHOCYTE,[3],14603.33 CELLS/uL
same,ABSOLUTE MONOCYTE,[3],300.67 CELLS/uL
same,ABSOLUTE SEGMENTED NEUTROPHIL,[3],1335.67 CELLS/uL
same,BASOPHIL,[3],0%
same,EOSINOPHIL,[3],1%
same,ERYTHROCYTE COUNT,[3],5.47 x10E6/uL
same,HEMATOCRIT,[3],35.43%
same,HEMOGLOBIN,[3],13.57 G/DL
same,LEUKOCYTE COUNT,[3],16.4 x10E3/uL
same,LYMPHOCYTE,[3],89%
same,MEAN CORPUSCULAR HEMOGLOBIN,[3],24.8 pg
same,MEAN CORPUSCULAR HEMOGLOBIN CONCENTRATION,[3],38.3 G/DL
same,MEAN CORPUSCULAR VOLUME,[3],64.8 fL
same,MONOCYTE,[3],1.67%
same,NEUTROPHIL,[3],8.33%
same,NUCLEATED RED BLOOD CELLS,[3],0 /100WBC
same,PLATELET COUNT,[3],1121.33 x10E3/uL
same,ALANINE AMINOTRANSFERASE,[3],51 u/L
same,ALBUMIN,[3],4.23 G/DL
same,ALKALINE PHOSPHATASE,[3],364.33 u/L
same,ASPARTATE AMINOTRANSFERASE,[3],94.33 u/L
same,BLOOD UREA NITROGEN,[3],19 mg/dL
same,CARBON DIOXIDE,[3],28.33 mmol/L
same,CHLORIDE,[3],100.67 MEQ/L
same,CHOLESTEROL,[3],71 mg/dL
same,CREATINE PHOSPHOKINASE,[3],448 u/L
same,CREATININE,[3],0.15 mg/dL
same,GLUCOSE,[3],140.33 mg/dL
same,LACTATE DEHYDROGENASE,[3],505 u/L
same,LIPASE,[3],10 u/L
same,PHOSPHORUS,[3],11.6 mg/dL
same,POTASSIUM,[3],6.27 MEQ/L
same,SODIUM,[3],143.57 MEQ/L
same,TOTAL BILIRUBIN,[3],0.23 mg/dL
same,TOTAL PROTEIN,[3],6.07 G/DL
same,URIC ACID,[3],1.37 mg/dL
